Results on 20 compounds are retold here after US10562912B2 (C&C Research Laboratories, priority 2013, dated 2020).

Molecules are shown by their SMILES. Some results are limits rather than exact numbers.

Holding throughout (assay type): cell-based
The target of one assay is T1, STAT3 (Homo sapiens, UniProt P40763).
T1 construct: plasmid pSTAT3-TA-luc), which contains a stably operating STAT3 promoter; endogenous in cells
Description: STAT3 reporter gene assay (luciferase), LNCaP stable cell line (pSTAT3-TA-luc), IL-6 stimulation. The method, boiled down: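 LNCaP cells stably carrying pSTAT3-TA-luc, in RPMI1640 with 3% DCC-FBS, were treated with compound and then stimulated with 10 ng/mL IL-6 for 24–48 h at 37 °C. Luciferase activity was measured in lysates. A parallel plate measured viability by CellTiter-Glo, with stimulated 0.1% DMSO wells as the positive control.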
A general note: A reporter such as luciferase makes a cellular process visible.

Another assay relates to LNCaP. Description: Cell growth inhibition assay, prostate cancer cell line LNCaP (medium with 10 ng/mL IL-6). The settings on record: Homo sapiens, medium supplemented with 10 ng/mL of IL-6, 10,000 cells/well.
Another assay deals with MDA-MB-231. Description: Cell growth inhibition assay, breast cancer cell line MDA-MB-231. The settings on record: Homo sapiens; MDA-MB-231 breast cancer cell line, 5,000 cells/well. As to the method: The inhibitory effects of the compounds of the present invention against the growth of cancer cells were evaluated as shown below. The cancer cell lines including stomach cancer cell line (AGS), breast cancer cell lines (MDA-MB-231, MDA-MB-468, and BT-549), prostate cancer cell lines (LNCaP and DU-145), colon cancer cell line (HCT116), ovarian cancer cell line (SW626), liver cancer cell line (Hep3B), kidney cancer cell line (ACHN), lung cancer cell line (NCI-H23) and blood cancer cell lines (HEL92.1.7 and U266) were cultured under the protocol provided by each supplier. A medium supplemented with 10 ng/mL of IL-6 was used for LNCaP, a prostate cancer cell line, when treated with a drug. Each type of cells to be used in experiments were sub-cultured in a 96-well plate by counting the exact number of cells using Tali™ Image-based Cytometer (Life Technologies). In a 96-well plate, AGS, HCT116, and DU-145 were employed with 3,000 cells/well; NCI-H23, SW626, Hep3B, ACHN, BT-549, MDA-MB-231, HEL92.1.7, and U266 were employed with 5,000 cells/well; and LNCaP and MDA-MB-468 were employed with 10,000 cells/well. The cells were treated with the compounds listed in Examples which were diluted in various concentrations. Upon completion of the compounds treatment, AGS, HCT116, SW626, DU145, NCI-H23, Hep3B, ACHN, BT-549, LNCaP, HEL92.1.7, and U266 cells were cultured at 37° C. under 5% CO2 for from 72 to 96 hours, and MDA-MB-231 and MDA-MB-468 cells were cultured at 37° C. in air for from 72 to 96 hours. Subsequently, the cells were observed under microscope and drug precipitation and particular findings were investigated and recorded. And then, the 96-well plate was placed at room temperature for 30 minutes, added with 20 μL/well of CellTiter-Glo solution (Cat No. G7573, Promega) and shaken for 10 minutes, followed by being subjected to the measurement using PHERAstar™ microplate reader (BMG LABTECH) according to the supplier's general luminometer protocol. Wells where only culture liquid added without cell plating were used as a negative control, whereas wells where culture liquid containing 0.1% DMSO instead of the compounds listed in Examples were used as a positive control.

T1 sequence (P40763 whole entry): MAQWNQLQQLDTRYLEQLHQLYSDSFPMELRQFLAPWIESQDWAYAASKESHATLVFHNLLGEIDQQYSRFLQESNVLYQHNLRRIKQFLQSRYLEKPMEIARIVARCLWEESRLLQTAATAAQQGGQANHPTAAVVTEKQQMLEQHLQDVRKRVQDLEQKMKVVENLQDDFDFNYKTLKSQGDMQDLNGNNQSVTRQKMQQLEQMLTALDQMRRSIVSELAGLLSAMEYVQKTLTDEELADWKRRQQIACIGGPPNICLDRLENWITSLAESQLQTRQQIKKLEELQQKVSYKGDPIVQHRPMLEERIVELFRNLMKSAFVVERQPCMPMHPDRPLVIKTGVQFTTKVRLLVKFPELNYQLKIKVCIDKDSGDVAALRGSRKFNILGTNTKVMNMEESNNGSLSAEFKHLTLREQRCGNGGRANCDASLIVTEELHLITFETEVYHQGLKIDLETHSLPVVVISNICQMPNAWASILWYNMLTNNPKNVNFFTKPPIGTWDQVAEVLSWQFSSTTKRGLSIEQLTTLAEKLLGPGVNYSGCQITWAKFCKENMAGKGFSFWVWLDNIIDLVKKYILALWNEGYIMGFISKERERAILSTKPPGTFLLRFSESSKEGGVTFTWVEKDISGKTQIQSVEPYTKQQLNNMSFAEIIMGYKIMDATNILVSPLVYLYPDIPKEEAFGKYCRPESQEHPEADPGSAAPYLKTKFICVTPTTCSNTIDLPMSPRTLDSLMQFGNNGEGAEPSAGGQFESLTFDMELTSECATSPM

On to `CC(C)(c1ccc(F)cc1)c1cccc(NC(=O)c2cc3ccc(NS(C)(=O)=O)cc3s2)c1` [Example 30, N-(3-(2-(4-fluorophenyl)propan-2-yl)phenyl)-6-(methylsulfonamido)benzo[b]thiophene-2-carboxamide], for which the values for the IC50 against STAT3, with LNCaP and in the assay on MDA-MB-231 were 0.43 µM, 2.9 µM and 0.37 µM, respectively.

On to `CC(C)(c1cccc(NC(=O)c2cc3cc(NS(C)(=O)=O)ccc3s2)c1)c1ccccc1F` [Example 31, N-(3-(2-(2-fluorophenyl)propan-2-yl)phenyl)-5-(methylsulfonamido)benzo[b]thiophene-2-carboxamide], for which the results for the IC50 against STAT3, with LNCaP and with MDA-MB-231 were 0.19 µM, 0.49 µM and 0.026 µM, respectively.

For the compound `CC(C)(c1cccc(NC(=O)c2cc3cc(NS(C)(=O)=O)ccc3s2)c1)c1cccc(OC(F)(F)F)c1` [Example 37, 5-(methylsulfonamido)-N-(3-(2-(3-(trifluoromethoxy)phenyl)propan-2-yl)phenyl)benzo[b]thiophene-2-carboxamide], the figures for the IC50 against STAT3, in the assay on LNCaP and in the assay with MDA-MB-231 were 0.046 µM, 0.39 µM and 0.016 µM, respectively.

In the case of `COc1cccc(C(C)(C)c2cccc(NC(=O)c3cc4cc(NS(C)(=O)=O)ccc4s3)c2)c1` [Example 38, N-(3-(2-(3-methoxyphenyl)propan-2-yl)phenyl)-5-(methylsulfonamido)benzo[b]thiophene-2-carboxamide], the IC50 at STAT3 stood at 0.1 µM; in the assay with LNCaP it was 0.8 µM; in the assay on MDA-MB-231 it was 0.049 µM.

As to `CC(C)(c1ccc(F)cc1)c1cc(NC(=O)c2cc3cc(NS(C)(=O)=O)ccc3s2)cc(OC(F)F)c1` [Example 39, N-(3-(difluoromethoxy)-5-(2-(4-fluorophenyl)propan-2-yl)phenyl)-5-(methylsulfonamido)benzo[b]thiophene-2-carboxamide], the IC50 is 0.048 µM on STAT3, 0.22 µM with LNCaP and 0.05 µM with MDA-MB-231.

As to `CC(C)(c1ccc(F)cc1)c1cc(Cl)cc(NC(=O)c2cc3cc(NS(C)(=O)=O)ccc3s2)c1` [Example 40, N-(3-chloro-5-(2-(4-fluorophenyl)propan-2-yl)phenyl)-5-(methylsulfonamido)benzo[b]thiophene-2-carboxamide], the IC50 at STAT3 came to 0.076 µM; in the assay on LNCaP, 0.37 µM; in the assay on MDA-MB-231, 0.006 µM.

As to `COc1cc(OC(F)(F)F)cc(C(C)(C)c2cc(NC(=O)c3cc4cc(NS(C)(=O)=O)ccc4s3)cc(OC(F)F)c2)c1` [Example 41, N-(3-(difluoromethoxy)-5-(2-(3-methoxy-5-(trifluoromethoxy)phenyl)propan-2-yl)phenyl)-5-(methylsulfonamido)benzo[b]thiophene-2-carboxamide], the figures for the IC50 against STAT3, in the assay on LNCaP and with MDA-MB-231 were 0.028 µM, 0.11 µM and 0.024 µM, respectively.

For `CC(C)(c1cc(Br)cc(NC(=O)c2cc3cc(NS(C)(=O)=O)ccc3s2)c1)c1cc(OCC(N)=O)ccc1F` [Example 44, N-(3-(2-(5-(2-amino-2-oxoethoxy)-2-fluorophenyl)propan-2-yl)-5-bromophenyl)-5-(methylsulfonamido)benzo[b]thiophene-2-carboxamide], the IC50 worked out at 1.4 µM against STAT3, 5.2 µM in the assay with LNCaP and 4 µM in the assay with MDA-MB-231.

Turning to `CC(C)(Oc1cccc(C(C)(C)c2cc(Br)cc(NC(=O)c3cc4cc(NS(C)(=O)=O)ccc4s3)c2)c1)C(N)=O` [Example 45, N-(3-(2-(3-((1-amino-2-methyl-1-oxopropan-2-yl)oxy)phenyl)propan-2-yl)-5-bromophenyl)-5-(methylsulfonamido)benzo[b]thiophene-2-carboxamide], the figures for the IC50 against STAT3, in the assay with LNCaP and with MDA-MB-231 were 1.3 µM, 4.4 µM and 0.38 µM, respectively.

Take `CC(C)(c1cc(Br)cc(NC(=O)c2cc3cc(NS(C)(=O)=O)ccc3s2)c1)c1cccc(OC(F)F)c1` [Example 46, N-(3-bromo-5-(2-(3-(difluoromethoxy)phenyl)propan-2-yl)phenyl)-5-(methylsulfonamido)benzo[b]thiophene-2-carboxamide]: the IC50 at STAT3 worked out at 0.082 µM; in the assay on LNCaP it was 0.13 µM; with MDA-MB-231 it was 0.029 µM.

With `CC(C)(c1cc(Br)cc(NC(=O)c2cc3cc(NS(C)(=O)=O)ccc3s2)c1)c1cc(OC(F)(F)F)ccc1F` [Example 47, N-(3-bromo-5-(2-(2-fluoro-5-(trifluoromethoxy)phenyl)propan-2-yl)phenyl)-5-(methylsulfonamido)benzo[b]thiophene-2-carboxamide], the figures for the IC50 against STAT3, in the assay with LNCaP and with MDA-MB-231 were 0.008 µM, 0.031 µM and 0.006 µM, respectively.

With `Cc1c(C(=O)Nc2cccc(C(C)(C)c3ccc(F)cc3)c2)sc2cc(NS(C)(=O)=O)ccc12` [Example 51, N-(3-(2-(4-fluorophenyl)propan-2-yl)phenyl)-3-methyl-6-(methylsulfonamido)benzo[b]thiophene-2-carboxamide], the values for the IC50 against STAT3, in the assay with LNCaP and in the assay on MDA-MB-231 were 0.55 µM, 3.5 µM and 0.62 µM, respectively.

As for `Cc1c(C(=O)Nc2cccc(C(C)(C)c3ccc(F)cc3)c2)sc2ccc(NS(C)(=O)=O)cc12` [Example 52, N-(3-(2-(4-fluorophenyl)propan-2-yl)phenyl)-3-methyl-5-(methylsulfonamido)benzo[b]thiophene-2-carboxamide], the IC50 at STAT3 is 1.5 µM; with LNCaP it was 4.7 µM; with MDA-MB-231, 0.7 µM.

As for `CCC(CC)(c1ccc(F)cc1)c1cc(Br)cc(NC(=O)c2cc3cc(NS(C)(=O)=O)ccc3s2)c1` [Example 53, N-(3-bromo-5-(3-(4-fluorophenyl)pentan-3-yl)phenyl)-5-(methylsulfonamido)benzo[b]thiophene-2-carboxamide], the IC50 was found to be 0.026 µM against STAT3, 0.07 µM with LNCaP and 0.022 µM in the assay with MDA-MB-231.

Take `CCC(CC)(c1cc(NC(=O)c2cc3ccc(NS(C)(=O)=O)cc3[nH]2)cc(OC)c1)c1cc(OC)cc(OC(F)(F)F)c1` [Example 55, N-(3-methoxy-5-(3-(3-methoxy-5-(trifluoromethoxy)phenyl)pentan-3-yl)phenyl)-6-(methylsulfonamido)-1H-indole-2-carboxamide]: the IC50 at STAT3 came out at 0.16 µM; in the assay with LNCaP, 0.54 µM; in the assay on MDA-MB-231 it was 0.081 µM.

Regarding `C#Cc1cc(NC(=O)c2cc3ccc(NS(C)(=O)=O)cc3[nH]2)cc(C(C)(C)c2ccc(F)cc2)c1` [Example 107, N-(3-ethynyl-5-(2-(4-fluorophenyl)propan-2-yl)phenyl)-6-(methylsulfonamido)-1H-indole-2-carboxamide], the values for the IC50 against STAT3, with LNCaP and with MDA-MB-231 were 0.42 µM, 1.2 µM and 0.29 µM, respectively.

Turning to `C#Cc1cc(NC(=O)c2cc3cc(NS(C)(=O)=O)ccc3s2)cc(C(C)(C)c2ccc(F)cc2)c1` [Example 108, N-(3-ethynyl-5-(2-(4-fluorophenyl)propan-2-yl)phenyl)-5-(methylsulfonamido)benzo[b]thiophene-2-carboxamide], the IC50 against STAT3 amounted to 0.078 µM; in the assay on LNCaP, 0.31 µM; in the assay on MDA-MB-231, 0.073 µM.

Turning to `C#Cc1cc(NC(=O)c2cc3cc(NS(C)(=O)=O)ccc3s2)cc(C(C)(C)c2ccc(F)cc2F)c1` [Example 109, N-(3-(2-(2,4-difluorophenyl)propan-2-yl)-5-ethynylphenyl)-5-(methylsulfonamido)benzo[b]thiophene-2-carboxamide], the IC50 against STAT3 was 0.078 µM; with LNCaP, 0.42 µM; with MDA-MB-231, 0.09 µM.

Turning to `CC(C)(c1ccc(F)cc1)c1cccc(NC(=O)c2sc3cc(NS(C)(=O)=O)ccc3c2Cl)c1` [Example 110, 3-chloro-N-(3-(2-(4-fluorophenyl)propan-2-yl)phenyl)-6-(methylsulfonamido)benzo[b]thiophene-2-carboxamide], the IC50 on STAT3 is 4.3 µM; in the assay with LNCaP, over 10 µM; in the assay with MDA-MB-231, 3.3 µM.

With `CS(=O)(=O)Nc1ccc2c(Cl)c(C(=O)Nc3cccc(-c4ccc(F)cc4F)c3)sc2c1` [Example 111, 3-chloro-N-(2′,4′-difluoro-[1,1′-biphenyl]-3-yl)-6-(methylsulfonamido)benzo[b]thiophene-2-carboxamide], the IC50 was over 10 µM at STAT3, over 10 µM in the assay on LNCaP and 6.3 µM with MDA-MB-231.

Broadly, the IC50 is the concentration at which inhibition is half-maximal. The low end stands for inhibition by little substance, the high end for a need for much substance.
